Measured values published in patent US8802597B2, “Herbicidal pyrimidines” (E I du Pont de Nemours and Company, priority 2003, dated 2014).

Legend:
Format in all cases: in vivo
[1] = tested on: chickweed (Stellaria media); test: Test C postemergence
In short: (§1)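 Rating scale 0–100: 0 means no effect, 100 complete control; taken visually 12 to 14 days post-treatment versus controls. Pre- and postemergence greenhouse applications, postemergence at 1- to 4-leaf stage, non-phytotoxic solvent with surfactant as carrier.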

[2] = tested on: cocklebur (Xanthium strumarium); test: Test C pre/postemergence; details: Postemergence
In short: as §1

[3] = tested on: common ragweed (Ambrosia elatior); test: Test C pre/postemergence; details: Postemergence
In short: as §1

[4] = tested on: corn (Zea mays); test: Test C pre/postemergence; details: Postemergence
In short: as §1

[5] = tested on: lambsquarters (Chenopodium album); test: Test C pre/postemergence; details: Postemergence
In short: as §1

[6] = tested on: barnyardgrass (Echinochloa crus-galli); test: Test A pre/postemergence
In short: (§2)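 After planting in loam and sand, species received test chemical as preemergence soil spray; postemergence spray went on 2–10 cm plants at 1–2 leaves at the same time. Evaluation: visual injury, ~10 d, 0 no effect to 100 complete control.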

[7] = tested on: crabgrass (Digitaria sanguinalis); test: Test A pre/postemergence
In short: as §2

[8] = tested on: giant foxtail (Setaria faberi); test: Test A pre/postemergence
In short: as §2

[9] = tested on: redroot pigweed (Amaranthus retroflexus); test: Test A pre/postemergence
In short: as §2

[10] = tested on: morningglory (Ipomoea spp.); test: Test A pre/postemergence
In short: as §2

[11] = tested on: velvetleaf (Abutilon theophrasti); test: Test A pre/postemergence
In short: as §2

[12] = 125 g ai/ha, scale 0 to 100 (0 no effect, 100 complete control)
[13] = Postemergence, 125 g ai/ha, 0 to 100 scale (0 no effect, 100 complete control)
[14] = Postemergence, 500 g ai/ha, 0 to 100 scale (0 no effect, 100 complete control)
[15] = Preemergence, 125 g ai/ha, 0 to 100 scale where 0 is no effect and 100 is complete control, approximately ten days
[16] = Preemergence, 500 g ai/ha, 0 to 100 scale where 0 is no effect and 100 is complete control, approximately ten days

For COC(=O)c1nc(-c2ccc(Cl)cc2)nc(N)c1Br [Compound 83], the “Plant response rating (scale of 0 to 100), Chickweed” value ([1]; 16 g ai/ha) was 0, the “Plant response rating (scale of 0 to 100), Chickweed” value ([1]; 31 g ai/ha) was 0 and the “Plant response rating (scale of 0 to 100), Chickweed” value ([1]; 62 g ai/ha) was 10. For the same compound, the “Chickweed plant response rating” value [1, 12] was 30, the “Plant response rating (scale of 0 to 100), Cocklebur” value ([2]; 16 g ai/ha) was 60 and the “Plant response rating (scale of 0 to 100), Cocklebur” value ([2]; 31 g ai/ha) was 70. The “Plant response rating (scale of 0 to 100), Cocklebur” value ([2]; 62 g ai/ha) was 70, the “Cocklebur plant response rating” value [2, 12] was 100 and the “Plant response rating (scale of 0 to 100), Ragweed” value ([3]; 16 g ai/ha) was 65. For the same compound, the “Plant response rating (scale of 0 to 100), Ragweed” value ([3]; 31 g ai/ha) was 70, the “Plant response rating (scale of 0 to 100), Ragweed” value ([3]; 62 g ai/ha) was 75 and the “Ragweed plant response rating” value [3, 12] was 95. For the same compound, the “Plant response rating (scale of 0 to 100), Corn” value ([4]; 16 g ai/ha) was 5, the “Plant response rating (scale of 0 to 100), Corn” value ([4]; 31 g ai/ha) was 15 and the “Plant response rating (scale of 0 to 100), Corn” value ([4]; 62 g ai/ha) was 50. The “Corn plant response rating” value [4, 12] was 60, the “Plant response rating (scale of 0 to 100), Lambsquarters” value ([5]; 16 g ai/ha) was 90 and the “Plant response rating (scale of 0 to 100), Lambsquarters” value ([5]; 31 g ai/ha) was 95. The “Plant response rating (scale of 0 to 100), Lambsquarters” value ([5]; 62 g ai/ha) was 95, the “Lambsquarters plant response rating” value [5, 12] was 100 and the “Plant response rating, Barnyardgrass” value [6, 13] was 0. For the same compound, the “Plant response rating, Barnyardgrass” value [6, 14] was 10, the “Plant response rating, Barnyardgrass” value [6, 15] was 0 and the “Plant response rating, Barnyardgrass” value [6, 16] was 5. The “Plant response rating, Crabgrass” value [7, 13] was 0, the “Plant response rating, Crabgrass” value [7, 14] was 10 and the “Plant response rating, Crabgrass” value [7, 15] was 0. The “Plant response rating, Crabgrass” value [7, 16] was 5, the “Plant response rating, Foxtail, Giant” value [8, 13] was 0 and the “Plant response rating, Foxtail, Giant” value [8, 14] was 10. For the same compound, the “Plant response rating, Foxtail, Giant” value [8, 15] was 0, the “Plant response rating, Foxtail, Giant” value [8, 16] was 0 and the “Plant response rating, Pigweed” value [9, 13] was 70. The “Plant response rating, Pigweed” value [9, 14] was 85, the “Plant response rating, Pigweed” value [9, 15] was 20 and the “Plant response rating, Pigweed” value [9, 16] was 50. For the same compound, the “Plant response rating, Morningglory” value [10, 13] was 55, the “Plant response rating, Morningglory” value [10, 14] was 75 and the “Plant response rating, Morningglory” value [10, 15] was 0. The “Plant response rating, Morningglory” value [10, 16] was 10, the “Plant response rating, Velvetleaf” value [11, 13] was 90 and the “Plant response rating, Velvetleaf” value [11, 14] was 90. For the same compound, the “Plant response rating, Velvetleaf” value [11, 15] was 15 and the “Plant response rating, Velvetleaf” value [11, 16] was 30.
